Data as given in PubChem BioAssay (NCI).
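Dose response: 5 concentrations. Exposure: 48 h. Format: 96-well plates. Endpoint: linear interpolation; highest concentration if not reached. TGI denotes the concentration required for complete inhibition of growth.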

What was measured:
Assay in all cases: growth of human tumour cells (NCI), 48 h
CAKI-1 renal = test system: CAKI-1 renal
CCRF-CEM leukemia = test system: CCRF-CEM leukemia
HCC-2998 colon = test system: HCC-2998 colon
HCT-15 colon = test system: HCT-15 colon
HS 578T breast = test system: HS 578T breast
MDA-MB-231 breast = test system: MDA-MB-231 breast
MDA-MB-435 = test system: MDA-MB-435
MDA-N = test system: MDA-N
MOLT-4 leukemia = test system: MOLT-4 leukemia
NCI-H460 lung = test system: NCI-H460 lung
OVCAR-3 ovarian = test system: OVCAR-3 ovarian
OVCAR-5 ovarian = test system: OVCAR-5 ovarian
PC-3 prostate = test system: PC-3 prostate
SF-268 CNS = test system: SF-268 CNS
SF-539 CNS = test system: SF-539 CNS
SK-MEL-2 melanoma = test system: SK-MEL-2 melanoma
SK-OV-3 ovarian = test system: SK-OV-3 ovarian
SNB-19 CNS = test system: SNB-19 CNS

Measured: TGI

COC(=O)C1=C(OC(=O)/C=C/c2ccc(Cl)cc2)C(C(=O)OC)[C@]2(O)[C@@H](C(=O)OC)[C@H]1C[C@@H](c1ccccc1)[C@@H]2C(=O)OC (stereo partly specified)
> 47.1 µM: HCT-15 colon
> 95.9 µM: SNB-19 CNS
> 27.9 µM: SK-MEL-2 melanoma
94 µM: HS 578T breast
> 23.1 µM: MDA-N
> 25.4 µM: SF-268 CNS
35.6 µM: SF-539 CNS
> 47.6 µM: PC-3 prostate
46.9 µM: HCC-2998 colon
> 65.9 µM: MDA-MB-231 breast
> 100 µM: all other assays above

COc1cc(C2SCC(=O)N2c2ccc(NC(C)=O)cc2)cc(OC)c1OC (stereo unspecified)
> 100 µM: all assays above
